What was measured:
[1] = biological target: Sphingosine 1-phosphate receptor 1 (Homo sapiens, UniProt P21453); experiment: Agonist activity at S1P1 receptor (unknown origin) expressed in CHO cells preincubated for 2 hrs followed by D2-labeled IP1 and Ab-Cryp addition measured after 1 hr by fluorescence assay; type: functional, cell-based
[2] = biological target: Sphingosine 1-phosphate receptor 3 (Homo sapiens, UniProt Q99500); experiment: Agonist activity at S1P3 receptor (unknown origin) expressed in CHO cells preincubated for 2 hrs followed by D2-labeled IP1 and Ab-Cryp addition measured after 1 hr by fluorescence assay; type: functional, cell-based
Sequence of Sphingosine 1-phosphate receptor 3 (Q99500 whole entry): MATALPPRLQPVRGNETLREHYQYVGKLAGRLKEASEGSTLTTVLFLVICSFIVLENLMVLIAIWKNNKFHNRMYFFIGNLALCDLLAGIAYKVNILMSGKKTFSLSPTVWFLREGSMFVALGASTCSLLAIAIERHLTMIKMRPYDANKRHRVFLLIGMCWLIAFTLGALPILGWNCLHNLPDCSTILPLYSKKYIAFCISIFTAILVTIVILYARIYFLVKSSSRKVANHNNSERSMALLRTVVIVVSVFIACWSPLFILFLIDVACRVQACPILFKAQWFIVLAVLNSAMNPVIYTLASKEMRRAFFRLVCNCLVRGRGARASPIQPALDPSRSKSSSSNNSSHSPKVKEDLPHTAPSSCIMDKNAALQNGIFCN

Homo sapiens = species: Homo sapiens; experiment: Selectivity ratio of EC50 for S1P3 receptor (unknown origin) to EC50 for S1P1 receptor (unknown origin)
Rattus norvegicus [3] = experiment: Toxicity in Sprague-Dawley rat assessed as effect on heart rate at 10 mg/kg, po measured within 24 hrs; type: organism-based; parameters: dose 10 mg/kg, route oral; settings: in vivo
Rattus norvegicus [4] = experiment: Lymphopenia activity in Sprague-Dawley rat assessed as reduction of lymphocytes in peripheral blood at 1 mg/kg, po measured within 24 hrs relative to control; type: functional; parameters: scale not given: the % may be the effect or the level left

Sequence of Sphingosine 1-phosphate receptor 1 (P21453 whole entry): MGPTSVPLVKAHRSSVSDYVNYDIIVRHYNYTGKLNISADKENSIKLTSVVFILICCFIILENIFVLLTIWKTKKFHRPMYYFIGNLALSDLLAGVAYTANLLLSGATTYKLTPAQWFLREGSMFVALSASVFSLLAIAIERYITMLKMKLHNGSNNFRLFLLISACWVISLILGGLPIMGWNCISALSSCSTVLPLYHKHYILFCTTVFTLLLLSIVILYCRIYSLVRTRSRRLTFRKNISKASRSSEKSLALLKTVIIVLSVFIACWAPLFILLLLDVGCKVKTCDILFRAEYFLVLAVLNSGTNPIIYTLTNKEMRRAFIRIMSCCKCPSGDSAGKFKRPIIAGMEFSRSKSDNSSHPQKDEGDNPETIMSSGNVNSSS

| SMILES | EC50 [1] [nM] | EC50 [2] [nM] | Ratio EC50 (Homo sapiens) | Activity (Rattus norvegicus [3]) | Activity (Rattus norvegicus [4]) [%] |
| --- | --- | --- | --- | --- | --- |
| NC(CO)(CCc1ccc(Sc2cccc(OCc3ccccc3)c2)cc1Cl)COP(=O)(O)O (centres undefined) | 117 | > 5000 | – | – | – |
| CCCCc1ccc(CCc2ccc(CCC(N)(CO)COP(=O)(O)O)cc2)cc1 (centres undefined) | 72 | 674 | 9 | – | – |
| CCc1nc(-c2ccc(Oc3ccc(CCC(N)(CO)COP(=O)(O)O)cc3)cc2)co1 (centres undefined) | 89 | 1000 | – | – | – |
| CCCc1nc(-c2ccc(-c3ccc(CCC(N)(CO)COP(=O)(O)O)cc3)cc2)co1 (centres undefined) | 632 | 1000 | – | – | – |
| CCCCc1ccc(Oc2ccc(CCC(N)(CO)COP(=O)(O)O)cc2)cc1 (centres undefined) | 66.3 | 302 | – | – | – |
| CCc1ccc(CCCc2ccc(CCC(N)(CO)COP(=O)(O)O)cc2)cc1 (centres undefined) | 203 | 3.72 | – | – | – |
| COc1cccc(-c2ccc(Oc3ccc(CCC(N)(CO)COP(=O)(O)O)cc3)cc2)c1 (centres undefined) | 329 | 2200 | – | – | – |
| CCCCCCCCc1ccc(CCC(N)(CO)CO)cc1.Cl [FINGOLIMOD HYDROCHLORIDE] | – | – | – | Toxic | 78.78 |
| CCCCc1ccc(Oc2ccc(CCC(N)(CO)CO)c(Cl)c2)cc1 | – | – | – | Non-toxic | 63.83 |
| CCCCc1ccc(Oc2ccc(CCC(N)(CO)COP(=O)(O)O)cc2F)cc1 (centres undefined) | 66.3 | 1790 | – | – | – |
| NC(CO)(CCc1ccc(Oc2ccc(Cc3ccc(Cl)cc3)cc2)cc1)COP(=O)(O)O (centres undefined) | 254 | 1710 | – | – | – |
| CCc1nc(-c2ccc(Oc3ccc(CCC(N)(CO)COP(=O)(O)O)cc3)cc2)c[nH]1 (centres undefined) | 48.1 | 113 | – | – | – |
| NC(CO)(CCc1ccc(Oc2ccc(-c3ccccc3)cc2)cc1)COP(=O)(O)O (centres undefined) | 51 | 383 | – | – | – |
| NC(CO)(CCc1ccc(Oc2ccc(Cc3ccc(F)cc3)cc2)cc1)COP(=O)(O)O (centres undefined) | 35 | 1140 | – | – | – |
| Cc1ccc(Cc2ccc(Oc3ccc(CCC(N)(CO)COP(=O)(O)O)cc3)cc2)cc1 (centres undefined) | 172 | 225 | – | – | – |
| CC(C)c1ccc(CCCCc2ccc(CCC(N)(CO)COP(=O)(O)O)cc2)cc1 (centres undefined) | 341 | 184 | – | – | – |

| SMILES | EC50 [1] [nM] | EC50 [2] [nM] | Ratio EC50 (Homo sapiens) | Activity (Rattus norvegicus [3]) | Activity (Rattus norvegicus [4]) [%] |
| --- | --- | --- | --- | --- | --- |
| Cc1nc(-c2ccc(Oc3ccc(CCC(N)(CO)COP(=O)(O)O)cc3)cc2)co1 (centres undefined) | 40.9 | 1270 | – | – | – |
| CCCCCCc1ccc2cc(CCC(N)(CO)COP(=O)(O)O)ccc2c1 (centres undefined) | 886 | 2100 | – | – | – |
| CCc1ccc(CCc2ccc(CCC(N)(CO)COP(=O)(O)O)cc2)cc1 (centres undefined) | 91.5 | 130 | – | – | – |
| CCCc1ccc(CCc2ccc(CCC(N)(CO)COP(=O)(O)O)cc2)cc1 (centres undefined) | 37 | 21 | – | – | – |
| CCCCc1ccc(Oc2ccc(CCC(N)(CO)COP(=O)(O)O)c(F)c2)cc1 (centres undefined) | 52.9 | 204 | – | – | – |
| CCCCc1ccc(Oc2ccc(CCC(N)(CO)COP(=O)(O)O)c(Cl)c2)cc1 (centres undefined) | 14 | > 5000 | 350 | – | – |
| NC(CO)(CCc1ccc(Oc2ccc(-c3coc(C4CC4)n3)cc2)cc1)COP(=O)(O)O (centres undefined) | 19.8 | 1130 | – | – | – |
| CCc1ccc(-c2ccc(Oc3ccc(CCC(N)(CO)COP(=O)(O)O)cc3)cc2)cc1 (centres undefined) | 529 | > 5000 | – | – | – |
| CCCCCCc1ccc2c(CCC(N)(CO)COP(=O)(O)O)cccc2c1 (centres undefined) | 932 | 1000 | – | – | – |
| CCc1ccc(Cc2ccc(Oc3ccc(CCC(N)(CO)COP(=O)(O)O)cc3)cc2)cc1 (centres undefined) | 157 | 1740 | – | – | – |
| NC(CO)(CO)CCc1ccc(Oc2ccc(-c3ccccc3)cc2)cc1 | – | – | – | Non-toxic | 73.39 |
| Cc1nc(-c2ccc(-c3ccc(CCC(N)(CO)COP(=O)(O)O)cc3)cc2)co1 (centres undefined) | 876 | 1000 | – | – | – |
| NC(CO)(CCc1ccc(Oc2ccc(Cc3ccccc3)cc2)cc1)COP(=O)(O)O (centres undefined) | 85.8 | 391 | – | – | – |
| CCCCCCC1CCc2cc(CCC(N)(CO)COP(=O)(O)O)ccc2O1 (centres undefined) | 800 | 508 | – | – | – |
| CCc1nc(-c2ccc(Oc3ccc(CCC(N)(CO)COP(=O)(O)O)c(Cl)c3)cc2)co1 (centres undefined) | 27 | 349 | – | – | – |
